The values that follow come from PMC3845358 (Journal of immunology (Baltimore, Md. : 1950), 2013).

≈ marks a conversion by molar mass, not a printed value.

The term IC50 denotes the concentration that gives 50% inhibition.

Series [1] relates to Human peripheral blood mononuclear (PBMC) cells. As to the kind of experiment: LPS-stimulated cytokine release from PBMC. The format is cell-based. The note with it: 16 h.
The test system of series [2] is C57BL6 mice fed dextran sulfate sodium (DSS). As to the kind of experiment: DSS-induced colitis model. The format is in vivo, mouse. The note with it: 100 µg i.p. daily.
Series [3] deals with Murine lung epithelial (MLE) cells. Kind of series: Immunoblotting of Fbxl2, TRAFs and Fbxl2 substrates in MLE cells.
The target in a further series is SCF^Fbxo3 (Homo sapiens, UniProt Q9UK99). As to the kind of experiment: In vitro ubiquitin conjugation assay of Fbxl2. The format is biochemical.
Chain of SCF^Fbxo3 (Q13616 whole entry partner, one chain of several): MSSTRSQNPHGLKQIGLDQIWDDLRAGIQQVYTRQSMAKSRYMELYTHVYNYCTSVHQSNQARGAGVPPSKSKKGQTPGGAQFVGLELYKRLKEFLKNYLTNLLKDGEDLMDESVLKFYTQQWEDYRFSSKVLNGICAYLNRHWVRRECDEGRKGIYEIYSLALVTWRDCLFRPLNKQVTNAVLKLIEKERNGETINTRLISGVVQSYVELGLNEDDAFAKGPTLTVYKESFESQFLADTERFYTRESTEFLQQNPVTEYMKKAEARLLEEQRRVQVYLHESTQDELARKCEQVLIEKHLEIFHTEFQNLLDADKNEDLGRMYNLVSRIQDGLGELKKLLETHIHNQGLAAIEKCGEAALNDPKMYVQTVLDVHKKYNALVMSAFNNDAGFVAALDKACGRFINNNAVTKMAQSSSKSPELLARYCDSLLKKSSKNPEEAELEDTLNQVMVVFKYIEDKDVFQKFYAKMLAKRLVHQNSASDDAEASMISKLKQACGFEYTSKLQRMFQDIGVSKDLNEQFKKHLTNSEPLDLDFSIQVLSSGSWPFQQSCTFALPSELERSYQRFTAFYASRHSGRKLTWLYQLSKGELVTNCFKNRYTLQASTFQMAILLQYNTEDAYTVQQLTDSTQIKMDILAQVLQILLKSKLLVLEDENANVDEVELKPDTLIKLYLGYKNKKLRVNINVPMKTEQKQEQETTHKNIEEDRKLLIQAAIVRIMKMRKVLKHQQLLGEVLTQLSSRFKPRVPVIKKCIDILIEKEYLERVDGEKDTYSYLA
Chain of SCF^Fbxo3 (P63208 whole entry partner, one chain of several): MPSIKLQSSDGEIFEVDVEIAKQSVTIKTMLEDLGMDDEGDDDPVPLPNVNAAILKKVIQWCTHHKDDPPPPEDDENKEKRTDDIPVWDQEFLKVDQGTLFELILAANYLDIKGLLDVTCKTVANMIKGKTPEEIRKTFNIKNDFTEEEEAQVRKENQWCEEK
Chain of SCF^Fbxo3 (P62877 whole entry partner, one chain of several): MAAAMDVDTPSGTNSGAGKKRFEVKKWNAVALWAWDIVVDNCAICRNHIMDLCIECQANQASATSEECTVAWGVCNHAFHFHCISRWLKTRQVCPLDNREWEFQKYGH
The subject of a further series is LPS-treated PBMC. As to the kind of experiment: Cytokine array of LPS-treated PBMC. Type of series: cell-based, human. The note with it: 10 µg/ml, LPS 2 µg/ml, 16 h.
The target of series [4] is T1, COX-2 (Mus musculus, UniProt Q05769).
T1 sequence (Q05769 18-604): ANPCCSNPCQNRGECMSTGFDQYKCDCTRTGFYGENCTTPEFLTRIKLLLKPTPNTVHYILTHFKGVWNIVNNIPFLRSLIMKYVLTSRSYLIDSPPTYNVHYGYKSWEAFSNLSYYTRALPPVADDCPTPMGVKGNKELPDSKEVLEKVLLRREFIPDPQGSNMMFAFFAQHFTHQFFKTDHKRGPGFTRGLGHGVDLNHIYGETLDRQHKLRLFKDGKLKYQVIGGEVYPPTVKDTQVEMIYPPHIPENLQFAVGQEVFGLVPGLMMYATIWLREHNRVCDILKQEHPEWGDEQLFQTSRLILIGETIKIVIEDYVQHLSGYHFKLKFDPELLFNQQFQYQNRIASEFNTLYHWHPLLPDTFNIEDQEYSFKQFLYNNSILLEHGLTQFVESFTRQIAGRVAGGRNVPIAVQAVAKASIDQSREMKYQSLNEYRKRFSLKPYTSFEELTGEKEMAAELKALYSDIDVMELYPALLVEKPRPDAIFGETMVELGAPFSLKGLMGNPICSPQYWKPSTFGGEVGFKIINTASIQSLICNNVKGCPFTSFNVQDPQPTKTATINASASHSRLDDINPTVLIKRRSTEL
As to the kind of experiment: COX-2 activity and COX-2 levels in MLE cells. The note with it: 16 h. The format is cell-based, murine.

Series [5] deals with C57BL6 mice given TPA on ears. As to the kind of experiment: TPA-induced ear edema model. The format is in vivo, mouse. The note with it: topical 8, 40, 200 ug/ear, 18 h after TPA, versus vehicle.
The test system of another series is TRAF 1–6 in MLE cells. Kind of series: TRAF protein half-life. The note with it: different concentrations, 16 h.
The subject of the next series is bacterial growth. Kind of series: Kirby Bauer testing of bacterial growth. Particulars: data not shown.
In series [6] the test system is carrageenan-treated C57BL6 mice. Kind of series: Carrageenan paw edema model. Type of series: in vivo, mouse. Particulars: 100 µg i.p. daily, 48 h, versus vehicle. Background: The carrageenan paw model is a standard test of acute inflammation.
The target of series [7] is T2, Fbxo3 (Homo sapiens, UniProt Q9UK99).
T2 sequence (Q9UK99 1-471): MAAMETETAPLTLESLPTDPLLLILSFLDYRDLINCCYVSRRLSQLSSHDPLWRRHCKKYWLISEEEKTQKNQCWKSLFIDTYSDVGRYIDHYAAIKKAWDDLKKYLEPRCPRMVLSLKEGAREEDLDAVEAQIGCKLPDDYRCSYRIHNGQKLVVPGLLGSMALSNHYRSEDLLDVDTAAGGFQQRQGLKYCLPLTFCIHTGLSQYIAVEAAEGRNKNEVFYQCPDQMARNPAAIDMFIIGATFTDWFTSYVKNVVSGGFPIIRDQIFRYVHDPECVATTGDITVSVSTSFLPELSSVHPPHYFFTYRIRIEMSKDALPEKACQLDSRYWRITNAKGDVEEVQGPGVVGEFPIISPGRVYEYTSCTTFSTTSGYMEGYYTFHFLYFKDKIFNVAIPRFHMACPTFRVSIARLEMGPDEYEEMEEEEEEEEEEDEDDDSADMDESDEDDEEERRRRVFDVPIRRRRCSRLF
Kind of series: Reversibility of Fbxo3 inhibition by ultrafiltration and Fbxl2 pull-down. Particulars: 1 mg/ml, one or three rounds of ultrafiltration (3 kDa cutoff).

Series [8] deals with C57BL6 mice challenged with H1N1 (A/PR/8/34). As to the kind of experiment: H1N1 influenza pneumonia model. The format is in vivo, mouse. The note with it: 30 µg/ml in drinking water.
The nature of series [9]: Observation of treated animals across the inflammation models. The format is in vivo, mouse. The note with it: parenteral, oral, topical application.
A further series concerns LOX-1. Kind of series: Purified enzyme activity assay, LOX-1. Particulars: 10 µM, purified protein.
The target in series [10] is T2, Fbxo3. As to the kind of experiment: Fbxo3/Fbxl2 protein interaction pull-down assay. Type of series: binding. Particulars: Fbxo3 beads from Hela cell lysates, 10^−11 to 10^−4 M tested.
The target in another series is COX-1 (Homo sapiens, UniProt P23219). Kind of series: Purified enzyme activity assay, COX-1. Particulars: 10 µM, purified protein.
Chain of COX-1 (P23219 24-599): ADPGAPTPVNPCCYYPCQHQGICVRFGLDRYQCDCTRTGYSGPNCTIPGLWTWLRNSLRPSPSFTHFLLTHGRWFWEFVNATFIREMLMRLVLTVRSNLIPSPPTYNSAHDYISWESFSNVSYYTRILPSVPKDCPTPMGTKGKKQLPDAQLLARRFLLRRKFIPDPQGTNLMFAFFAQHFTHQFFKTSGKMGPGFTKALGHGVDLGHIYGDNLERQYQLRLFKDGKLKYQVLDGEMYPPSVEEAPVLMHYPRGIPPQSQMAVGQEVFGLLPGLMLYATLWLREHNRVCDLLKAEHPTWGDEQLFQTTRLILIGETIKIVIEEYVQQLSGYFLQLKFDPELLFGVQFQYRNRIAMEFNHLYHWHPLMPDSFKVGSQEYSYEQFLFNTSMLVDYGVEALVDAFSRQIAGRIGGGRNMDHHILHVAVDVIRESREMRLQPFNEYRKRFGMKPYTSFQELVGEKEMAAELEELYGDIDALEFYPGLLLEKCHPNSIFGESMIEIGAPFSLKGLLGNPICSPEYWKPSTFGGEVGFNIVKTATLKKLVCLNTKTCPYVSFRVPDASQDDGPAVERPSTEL
The target of series [11] is T3, COX-2 (Homo sapiens, UniProt P35354).
T3 sequence (P35354 18-604): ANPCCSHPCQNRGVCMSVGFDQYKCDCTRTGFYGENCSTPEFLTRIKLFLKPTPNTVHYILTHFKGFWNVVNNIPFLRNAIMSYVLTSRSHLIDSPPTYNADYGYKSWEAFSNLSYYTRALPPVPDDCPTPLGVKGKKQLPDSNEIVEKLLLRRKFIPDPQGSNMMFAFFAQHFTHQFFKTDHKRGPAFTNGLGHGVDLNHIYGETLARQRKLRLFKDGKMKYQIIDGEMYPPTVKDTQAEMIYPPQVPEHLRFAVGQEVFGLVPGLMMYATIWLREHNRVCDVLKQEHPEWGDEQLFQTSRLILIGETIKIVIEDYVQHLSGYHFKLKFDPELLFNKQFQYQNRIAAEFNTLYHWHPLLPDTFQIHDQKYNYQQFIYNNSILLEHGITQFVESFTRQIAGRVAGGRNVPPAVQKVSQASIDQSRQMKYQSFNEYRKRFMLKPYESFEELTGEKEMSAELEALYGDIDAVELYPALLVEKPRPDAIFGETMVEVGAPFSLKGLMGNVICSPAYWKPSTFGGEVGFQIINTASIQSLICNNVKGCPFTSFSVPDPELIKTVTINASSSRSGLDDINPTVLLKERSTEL
As to the kind of experiment: Purified enzyme activity assay, COX-2. The note with it: 10 µM, purified protein.

In the case of `c1ccc(CNCCNCc2ccccc2)cc1` [benzathine, reference compound], the “IC50 for IL-1β” value in [1] (LPS 2 µg/ml, ELISA) was 25 µg/mL.
Take `c1ccc(-c2ccc(CNCCNCc3ccc(-c4ccccn4)cc3)cc2)nc1` [BC-1215]: in series [2] (3.5% DSS five days, compared to control), the colon length result was “no significant decrease in colon length”. In addition, the “TRAF protein levels in colon tissue” value in series [2] (immunoblotting) was “significant reduction of immunoreactive TRAF2 and TRAF4 content”. Moreover, in series [2] (versus vehicle), the “IL1β level in colonic tissue” value is on record as “large reduction”; the “TNFα level in colonic tissue” value is given as “large reduction”; the “colon histology (H&E and Alcian staining)” value is given as “significant restoration of colonic crypts with reappearance of goblet cells”. Moreover, the “TNFα-induced TRAF2/TRAF3 up-regulation and p38, p-IKK activation” value in series [3] (MLE cells co-treated with TNFα 10 ng/ml, 6 h) is on record as “suppress such effects in a dose-dependent manner”. Besides, the “levels of Fbxl2 substrates cyclin D2, cyclin D3 and CCT” value in series [3] (MLE cells, 16 h, immunoblotting) is “reduced”. Besides, in series [3] (cells, range of concentrations, compared to benzathine control), the “immunoreactive Fbxl2 and TRAF protein levels” value was “increased immunoreactive Fbxl2 levels and reduced TRAF proteins”. Besides, half-maximal inhibition at SCF^Fbxo3 (IC50) required 100 nM. Besides, the “release of Th1 panel cytokines” value in the series on LPS-treated PBMC is reported as “remarkably suppressed the majority of the Th1 panel cytokines”. Besides, at COX-2 [4] (10 µg/ml, positive control DuP-697), the “COX-2 activity in cells” value is “did not alter COX-2 activity”. Besides, at COX-2 [4] (different concentrations, immunoblotting), the “immunoreactive COX-2 levels” value is recorded as “did not alter immunoreactive COX-2 levels”. For the same molecule, in [5], the ear thickness result was “significantly reduced” and the “ear weight (punch biopsy)” value is “significantly reduced”. In the series with TRAF 1–6 in MLE cells, the “TRAF steady-state mRNA levels” value is reported as “without altering TRAF steady-state mRNA levels”. Besides, in the series with bacterial growth, the “inhibition of bacterial growth” value is “modest inhibition of bacterial growth”. In series [6], the “paw edema (volume)” value is “significantly reduce” and the paw thickness result was “significantly reduce”. On Fbxo3 [7], the “reversibility of Fbxo3 inhibition” value is listed as “reversible”. Besides, the IC50 in series [1] (Homo sapiens, read-out: IC50 for IL-1β) stood at 0.9 µg/mL (≈ 2.28 µM). For the same molecule, in [8], the lavage cell counts entry was “remarkably decreased” and the lavage protein concentration result was “remarkably decreased”. Besides, in series [8] (day 5, FlexiVent), the lung compliance result is listed as “increased compliance” and the lung elastance entry is on record as “reduced elastance”. Besides, in series [8] (gross images and H&E), the “pulmonary edema, hemorrhage and alveolar inflammation” value is “lessened severity”. Further, the survival result in series [8] (up to 9 d, versus diluent) is listed as “significantly increased survival”. Moreover, the “overt signs of distress in treated animals” value in series [9] is listed as “not observed to exhibit overt signs of distress”. For the same molecule, in the series on LOX-1, the “inhibition of LOX-1 enzymatic activity” value was “does not cause significant inhibitory effects”. The “concentration of maximal inhibitory binding (Fbxl2 pull-down by Fbxo3 beads)” value at Fbxo3 [10] was 10^−7 M. Further, the “inhibition of COX-1 enzymatic activity” value against COX-1 is listed as “does not cause significant inhibitory effects”. The “inhibition of COX-2 enzymatic activity” value on COX-2 [11] is “does not cause significant inhibitory effects”.
